# In patent publication US12667568B2, “Compositions and methods for the treatment and diagnosis of cancer” (The General Hospital Corporation, priority 2020, dated 2026):
# Key:
# Format in all cases: cell-based
# U2OS or MCF7 cells = experiment: Cell survival assay, YW-1842 alone; details: concentration below 5 μM/L
# Experimental: FIGS. 6F-6G show TRDMT1 inhibitor YW-1842 delays the repair of DSBs at the transcribed genome. (FIG. 6F) U2OS or MCF7 cells were treated with or without compound YW-1842 at the indicated concentration. The survival rate of these cells was shown (n=3, Mean±SD). (FIG. 6G) SCE WT cells were transfected with TA-KR and were cultured with […] YW-1842 or not for 6 hours, γ-H2AX (n=3, 50 cells per replicated, Mean±SD) were stained and quantified.
# (§1) Approximately 500 U2OS/TRDMT1 KO U2OS/MCF-7/HCC1954/HCC1937 cells and TRDMT1 siRNA or GFP-TRDMT1 WT/G155V/K251R transfected cells were seeded in 6 cm dish with or without TRDMT1 inhibitors (2.5 μM/L). 6 hrs after seeding, cells were exposed to cisplatin (1134357, Sigma, 1 μM/L), ATMi (KU55933, C9867, Sigma, 1 μM/L), ATRi (AZ20, 57050, Selleck, 1 μM/L) or PARPi (Olaparib, AZD2461, Sigma, 1 μM/L) at indicated concentration or ionizing radiation (IR). After 7-14 days, colonies were fixed and stained with 0.3% crystal violet in methanol, and the number of colonies was counted manually.
# [1] = test system: HST578, MBAMD231, HCC1937, HCC1954 cancer cells; experiment: Cell survival assay, TRDMT1i alone (Example 19)
# Experimental: FIGS. 14A-14C show TRDMT1i alone reduce cancer cell survival in a dose-dependent manner. (FIG. 14A) Survival rate of HR proficient (HR+) HST578 cancer cells with and without siBRCA1 and/or TRDMT1i YW-1842 at indicated dose. The survival rate of these cells was analyzed (n=3, Mean±SD). (FIG. 14B) Survival rate of MBAMD231 (HR+) and HCC1937 (HRD) cells. The survival rate of these cells was analyzed (n=3, Mean±SD). (FIG. 14C) Cell survival rate in different cancer cell lines via colony-forming assay with the treatment of Imatinib at indicated dose (n=3, mean+/−S.D.). Cell lines are listed in order with the expression level from SYCP2high to SYCP2low.
# Cells were seeded in each 6-cm dish and cultured as described above. They were treated with drugs with indicated dose in medium after seeding. After 7-10 days, colonies were fixed and stained with 0.3% crystal violet in methanol, and the number of colonies was counted manually.
# TRDMT1 = molecular target: T1, TRDMT1 (Homo sapiens, UniProt O14717); experiment: m5C staining at TA-KR DNA damage sites
# T1 construct: SCE WT cells were transfected with TA-KR and were cultured with 2.5 μM/L compound YW-1842 or not for 6 hours; endogenous in cells
# T1 sequence (O14717 1-391): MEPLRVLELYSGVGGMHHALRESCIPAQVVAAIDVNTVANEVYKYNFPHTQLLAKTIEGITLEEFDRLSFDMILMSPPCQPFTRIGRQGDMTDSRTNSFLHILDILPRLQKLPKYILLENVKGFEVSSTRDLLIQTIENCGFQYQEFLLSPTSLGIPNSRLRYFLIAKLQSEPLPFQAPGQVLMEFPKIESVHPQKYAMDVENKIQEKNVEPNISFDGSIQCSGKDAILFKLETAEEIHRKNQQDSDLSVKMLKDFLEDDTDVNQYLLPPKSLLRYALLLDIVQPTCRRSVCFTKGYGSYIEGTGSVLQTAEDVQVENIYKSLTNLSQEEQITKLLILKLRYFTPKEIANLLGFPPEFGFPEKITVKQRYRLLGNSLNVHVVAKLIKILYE
# Experimental: (§2) FIGS. 6A-6E show TRDMT1 Inhibitors specifically sensitizes cells to DNA damage agents. (FIG. 6A) SCE WT cells were transfected with TA-KR and were cultured with 2.5 μM/L compound YW-1842 or not for 6 hours, m^5C (n=3, 50 cells per replicated, Mean±SD) was stained and quantified. DR-GFP (FIG. 6B) or EJ5-GFP (FIG. 6C) cells were pre-treated with 2.5 μM/L compound YW-1842 for 6 h or TRDMT1 siRNA for 48 h, or DMSO. Then the cells were transfected with NLS-I-SceI plasmid to induce DSB. The efficiency of HR (FIG. 6B) or NHEJ (FIG. 6C) was analyzed by flow-cytometry (n=3, Mean f SD). (FIG. 6D) After seeding, MCF-7, HCC1954, and HCC1937 cells were pre-treated with or without 2.5 μM/L compound YW-1842 for 6 h, then cultured with chemotherapy drugs (1 μM/L Cisplatin; 1 μM/L ATRi AZ20; […]; 1 μM/L PARPi Olaparib for 10 days. The survival rate of these cells was analyzed (n=3, Mean±SD). (FIG. 6E) TRDMT1 KO U2OS cells were transfected with GFP-TRDMT1^WT or GFP-TRDMT1^G155V with or without 2.5 μM/L compound YW-1842, the survival rate of these cells after IR or Cisplatin was shown (n=3, Mean±SD).
# The Olympus FV1000 confocal microscopy system (Cat. FIOPRDMYR-1, Olympus) and FV1000 software were used for the acquisition of images. Cells were cultured in 35 mm glass-bottom dishes (MatTek, P35GC-1.5-14-C) before observation. […] The intensity was measured by ImageJ 1.52i software. […]
# [2] = test system: MCF-7, HCC1954, and HCC1937 cells; experiment: Cell survival assay, YW-1842 with DNA damaging agents, IR or H2O2
# Experimental: as §2
# MCF-7, HCC1954, and HCC1937 cells were pre-treated with or without TRDMT1 inhibitor YW-1842 (2.5 μM) for 6 hrs, then the cells were exposed to IR or H2O2, and cultured for 7-14 days. The survival rate of these cells was analyzed (n=3, Mean±SD)
# as §1
smiles,measurement,setting,value
"COc1cc2nc(-n3cc(-c4ccc(S(C)(=O)=O)cc4)cn3)nc(-c3ccsc3)c2cc1OC [YW-1842, 6,7-dimethoxy-2-(4-(4-(methylsulfonyl)phenyl)-1H-pyrazol-1-yl)-4-(thiophen-3-yl)quinazoline]",antiproliferative effect,U2OS or MCF7 cells,did not prohibit cell proliferation
same,sensitivity of HR deficient cells to TRDMT1i alone,[1]; HCC1937 (HRD) versus MBAMD231 (HR+),more sensitive
same,killing of HCC1954,"[1]; HCC1954, HRD, high SYCP2",efficiently killed HCC1954
same,"cancer cell survival, TRDMT1i alone",[1]; HR-proficient HST578 cells,kills HR-proficient cancer cells HST578 in a dose-dependent manner
same,TRDMT1i sensitivity on BRCA1 knockdown,[1]; HST578 cells with siBRCA1,significantly increased TRDMT1i sensitivity
same,killing across cancer cell lines by SYCP2 level and HR status,[1]; cell lines ordered SYCP2high to SYCP2low (FIG. 14C),killed SYCP2-high cancer cell lines and HR deficient cells the most efficiently
same,m^5C inhibitory activity,"TRDMT1; 2.5 μM/L, 6 hours, TA-KR sites (FIG. 6A)",almost equivalent to TRDMT1 depletion
same,"inhibiting TRDMT1 recruitment, m^5C formation and HR efficiency at DNA damage sites",TRDMT1; summary statement,performed well
same,survival rate in combination with H2O2,"[2]; 2.5 μM, combined with H2O2, versus DMSO",decreased the survival rate of all the three cell lines
same,sensitization to DNA damaging agents (survival rate),"[2]; 2.5 μM/L with Cisplatin, ATRi AZ20, ATMi KU55933 or PARPi Olaparib, versus single treatment",sensitizes the cells to above DNA damaging agents
same,cell killing by compound alone,"[2]; 2.5 μM/L, alone",does not kill cells alone
same,synergy with PARPi Olaparib,"[2]; YW-1842 2.5 μM, Olaparib at 1, HCC 1954 cell lines",strong synergy
